Read-outs that look alike come from different tables or passages of the source.
Assays:
[1] = test system: right ventricle of guinea pigs; assay: heart function dP/dtmax, right ventricle of anesthetized guinea pigs; type: in vivo, guinea pig
Method: The effect of the substances on the contractility of the heart of guinea pigs is tested on animals (.male., 400 to 1000 g) under urethane anesthesia. The change in pressure in the right ventricle of the heart is measured with a tip catheter introduced through the right jugular vein and the maximum rate of pressure rise (dP/dtmax) is determined from this. The heart rate is derived from the pressure waves. […] The test substances were administered intravenously. 5-7 animals were used for each measurement, and the arithmetic mean was calculated from the results.

[2] = test system: guinea pig hearts isolated and perfused by the Langendorff method; assay: left-ventricular pressure and heart rate in isolated perfused Langendorff hearts; settings: for Emax: Cavia porcellus; for EC20 left-ventricular pressure: dose which leads to a 20% increase in left ventricular pressure
Text: After the animals have been sacrificed by a blow to the neck and exsanguination through the carotid arteries, the thoracic cavity is opened, and the aorta is exposed and looped up with a thread. A cannula, which is attached by tubing to the apparatus from which the nutrient solution slowly drops, is introduced in the direction of the heart and the heart is, quickly after removal from the thorax, connected to the perfusion apparatus. A balloon probe, connected to a Statham pressure sensor, is advanced through a cut through the left atrium into the left ventricle, and is provided with an initial pressure of 40 mm Hg. […] The nutrient solution flowing freely from the coronary sinus into the right atrium is measured with a flow […]) and, together with the change in the left-ventricular pressure and the heart rate determined from this, is recorded on a Watanabe recorder. The substances are administered in a volume of 0.1 ml of nutrient solution, in the dosage indicated in Tab.

left ventricles of cats = assay: heart function dP/dtmax, left ventricle of anesthetized cats; type: in vivo, cat; settings: for increase in the heart rate or end-diastolic ventricular pressure / positive inotropic effects (increase in dP/dtmax) compared with comparison compounds: result in words
Method: The effect of the substances on the contractility of the heart in cats was tested on animals (.male., .female., 3.2 to 5.2 kg) under anesthesia with chloralose/urethane. The change in pressure in the left ventricle of the heart was measured with a tip catheter introduced through the right carotid artery, the R peak in the ECG (bipolar chest lead) initiating a signal to record the end-diastolic pressure; in addition, the maximum rate of pressure rise (dP/dtmax) was determined from the change in pressure. The heart rate was derived from the pressure waves. The test substances were administered intravenously. 2-6 animals were used per measurement, and the arithmetic mean was calculated from the results.

[3] = test system: electrically stimulated left atrium of rats; assay: positive inotropic action on electrically stimulated left atrium in vitro; design: species or system rat; settings: for [EC40 pot.] theophylline / [EC40 pot.] substance: Column E, left atrium; for EC40: Rattus norvegicus, Column B, negative logarithm of EC40pot in mol/l, 40% increase in contraction force, read-out: -lg[EC40 pot.] left atrium (converted)
Method: The positive inotropic action was tested in vitro on the electrically stimulated left atrium of rats (l.a.).
The positive inotropic action of the compounds was tested in vitro on the electrically stimulated left atrium of rats.
Isometric contractions (HSE force sensor K-30; Watanabe recorder, Linear Corder Mark 5) of isolated, left atria from rats (.male., 250-300 g) in an organ bath (10 ml, Tyrode nutrient solution, 31° C., gassing with carbogen, initial tension of the organs 0.25 g) under electrical stimulation (HSE stimulator, 7 V, 3 ms, 2 Hz) were recorded. […] The particular increase in the contraction force is expressed in % of the starting value before administration of the substance. The concentration of the test substance which potentiates the contraction force of the atrium by 40% compared with the starting value [EC40pot. mol/l], expressed by the negative logarithm of the [EC40pot mol/l]: -lg[EC40pot ] serves as a measure of the cardiotonic activity.

[4] = test system: chain of tracheal rings of guinea pigs; assay: relaxing action on chain of tracheal rings in vitro (bronchospasmolytic action); design: species or system guinea pig; settings: for EC50: Cavia porcellus, Column A, negative logarithm of EC50 in mol/l, 50% of maximum relaxation by (-)isoprenaline, read-out: -lg[EC50] trachea (converted); for [EC40 pot.] left atrium / [EC50] trachea: Column C, measure of organ-selective activity; for [EC50] theophylline / [EC50] substance: Column D, trachea
Method: The relaxing action of the 6-aryl-3[2H]pyridazinones I has been tested in vitro on a chain of tracheal rings (Tr.) of guinea pigs. […] The quotient of [EC40pot. ]left atrium and [ED50 ]trachea serves as a measure of the organ-selective activity.
The bronchospasmolytic action of the compounds on the chain of tracheal rings of the guinea pig was tested in vitro:
Four parallel chains of tracheal rings, each consisting of 6 individual rings, of guinea pigs(.male. and .female., 430-600 g) in an organ bath [5 ml, Krebs-Henseleit solution with added phentolamine (10^-5 mol/l), 37° C., initial tension of the organs 2 g, gassing with carbogen] develop a stable, spontaneous tonic contraction after about 20 to 30 minutes. […] Over a period of 20 to 30 minutes, a complete dose/action curve of the test substance is thus obtained. The particular relaxation is expressed as a percentage fraction of the maximum relaxation which can be achieved by administration of (-)isoprenaline (10^-6 mol/1). The concentration of the test substance which causes 50% of the maximum relaxation which can be achieved, expressed by the negative logarithm of the EC50 mol/l: -lg[EC50 ]is a measure of the bronchodilator activity.

[5] = 0.3 μmol/kg i.v., 0-10 min (Maximum)
[6] = 1 μmol/kg i.v., 0-10 min (Maximum)
[7] = 3 μmol/kg i.v., 0-10 min (Maximum)
[8] = after 1000 nMol, read-out: Emax left-ventricular pressure
[9] = at Emax, 1000 nMol, read-out: Percentage increase in heart rate at Emax

Nc1cc(-c2ccncc2)c[nH]c1=O [Amrinone, amrinone, reference compound]
Percentage change in dP/dtmax [1, 5]: 33% | Percentage change in dP/dtmax ([1]; 0.3 μmol/kg i.v., 10 min): 8% | Percentage change in dP/dtmax ([1]; 0.3 μmol/kg i.v., 30 min): 13% | Percentage change in dP/dtmax [1, 6]: 40% | Percentage change in dP/dtmax ([1]; 1 μmol/kg i.v., 10 min): 21% | Percentage change in dP/dtmax ([1]; 1 μmol/kg i.v., 30 min): 15% | Percentage change in dP/dtmax [1, 7]: 66% | Percentage change in dP/dtmax ([1]; 3 μmol/kg i.v., 10 min): 13% | Percentage change in dP/dtmax ([1]; 3 μmol/kg i.v., 30 min): 20% | Percentage change in dP/dtmax ([1]; 10 μmol/kg i.v., 0-10 min (Maximum)): 101% | Percentage change in dP/dtmax ([1]; 10 μmol/kg i.v., 10 min): 39% | Percentage change in dP/dtmax ([1]; 10 μmol/kg i.v., 30 min): 29% | Percentage change in dP/dtmax ([1]; 30 μmol/kg i.v., 0-10 min (Maximum)): 141% | Percentage change in dP/dtmax ([1]; 30 μmol/kg i.v., 10 min): 78% | Percentage change in dP/dtmax ([1]; 30 μmol/kg i.v., 30 min): 69% | Emax ([2]; after 3000 nMol, read-out: Emax left-ventricular pressure): 35% | Emax ([2]; at Emax, 3000 nMol, read-out: Percentage increase in heart rate at Emax): 8% | Percentage increase in heart rate at EC20 [2]: 7% | EC20 left-ventricular pressure [2]: 1410 nmol | Percentage change in dP/dtmax (left ventricles of cats; 1 μmol/kg i.v., 3 min): 17% | Percentage change in dP/dtmax (left ventricles of cats; 1 μmol/kg i.v., 10 min): 6% | Percentage change in dP/dtmax (left ventricles of cats; 1 μmol/kg i.v., 30 min): 7% | Percentage change in dP/dtmax (left ventricles of cats; 1 μmol/kg i.v., 60 min): 23% | Percentage change in dP/dtmax (left ventricles of cats; 3 μmol/kg i.v., 3 min): 52% | Percentage change in dP/dtmax (left ventricles of cats; 3 μmol/kg i.v., 10 min): 42% | Percentage change in dP/dtmax (left ventricles of cats; 3 μmol/kg i.v., 30 min): 40% | Percentage change in dP/dtmax (left ventricles of cats; 3 μmol/kg i.v., 60 min): 43% | Percentage change in dP/dtmax (left ventricles of cats; 10 μmol/kg i.v., 3 min): 70% | Percentage change in dP/dtmax (left ventricles of cats; 10 μmol/kg i.v., 10 min): 67% | Percentage change in dP/dtmax (left ventricles of cats; 10 μmol/kg i.v., 30 min): 59% | Percentage change in dP/dtmax (left ventricles of cats; 10 μmol/kg i.v., 60 min): 55%

C=CCOc1ccc(-c2ccc(=O)[nH]n2)cc1OC [Serial No. 5, 6-(4-allyloxy-3-methoxyphenyl)-3[2H]pyridazinone]
[EC40 pot.] theophylline / [EC40 pot.] substance [3]: 63.1 | EC40 [3]: 6.61 µM | EC50 [4]: 1510 nM | [EC40 pot.] left atrium / [EC50] trachea [4]: 4.4 | [EC50] theophylline / [EC50] substance [4]: 85.2 | Emax [2, 8]: 185% | Emax [2, 9]: 9% | Percentage increase in heart rate at EC20 [2]: 3% | EC20 left-ventricular pressure [2]: 14 nmol | Percentage change in dP/dtmax (left ventricles of cats; 0.3 μmol/kg i.v., 3 min): 27% | Percentage change in dP/dtmax (left ventricles of cats; 0.3 μmol/kg i.v., 10 min): 12% | Percentage change in dP/dtmax (left ventricles of cats; 0.3 μmol/kg i.v., 30 min): 11% | Percentage change in dP/dtmax (left ventricles of cats; 0.3 μmol/kg i.v., 60 min): 13% | Percentage change in dP/dtmax (left ventricles of cats; 1 μmol/kg i.v., 3 min): 64% | Percentage change in dP/dtmax (left ventricles of cats; 1 μmol/kg i.v., 10 min): 25% | Percentage change in dP/dtmax (left ventricles of cats; 1 μmol/kg i.v., 30 min): 15% | Percentage change in dP/dtmax (left ventricles of cats; 1 μmol/kg i.v., 60 min): 20% | increase in the heart rate or end-diastolic ventricular pressure (left ventricles of cats): without leading to any considerable increase in the heart rate or end-diastolic ventricular pressure | positive inotropic effects (increase in dP/dtmax) compared with comparison compounds (left ventricles of cats): stronger positive inotropic effects

CCOc1cc(-c2ccc(=S)[nH]n2)ccc1OC [compound 14]
[EC40 pot.] theophylline / [EC40 pot.] substance [3]: 200 | EC40 [3]: 2.09 µM | EC50 [4]: 1410 nM | [EC40 pot.] left atrium / [EC50] trachea [4]: 1.5 | [EC50] theophylline / [EC50] substance [4]: 95.5

Cn1c(=O)c2[nH]cnc2n(C)c1=O.NCCN [Theophylline-ethylenediamine, theophylline-ethylenediamine, reference compound]
Percentage change in dP/dtmax (left ventricles of cats; 3 μmol/kg i.v., 3 min): 8% | Percentage change in dP/dtmax (left ventricles of cats; 3 μmol/kg i.v., 10 min): 2% | Percentage change in dP/dtmax (left ventricles of cats; 3 μmol/kg i.v., 30 min): 2% | Percentage change in dP/dtmax (left ventricles of cats; 3 μmol/kg i.v., 60 min): 1% | Percentage change in dP/dtmax (left ventricles of cats; 10 μmol/kg i.v., 3 min): 62% | Percentage change in dP/dtmax (left ventricles of cats; 10 μmol/kg i.v., 10 min): 30% | Percentage change in dP/dtmax (left ventricles of cats; 10 μmol/kg i.v., 30 min): 22% | Percentage change in dP/dtmax (left ventricles of cats; 10 μmol/kg i.v., 60 min): 26%

CCOc1ccc(-c2ccc(=O)[nH]n2)cc1OC [Serial No. 4, 6-(4-ethoxy-3-methoxyphenyl)-3[2H]pyridazinone]
[EC40 pot.] theophylline / [EC40 pot.] substance [3]: 109 | EC40 [3]: 3.8 µM | EC50 [4]: 1320 nM | [EC40 pot.] left atrium / [EC50] trachea [4]: 2.9 | [EC50] theophylline / [EC50] substance [4]: 102 | Percentage change in dP/dtmax [1, 5]: 39% | Percentage change in dP/dtmax ([1]; 0.3 μmol/kg i.v., 10 min): 12% | Percentage change in dP/dtmax ([1]; 0.3 μmol/kg i.v., 30 min): 23% | Percentage change in dP/dtmax [1, 6]: 140% | Percentage change in dP/dtmax ([1]; 1 μmol/kg i.v., 10 min): 26% | Percentage change in dP/dtmax ([1]; 1 μmol/kg i.v., 30 min): 56% | Percentage change in dP/dtmax [1, 7]: 95% | Percentage change in dP/dtmax ([1]; 3 μmol/kg i.v., 10 min): 66% | Percentage change in dP/dtmax ([1]; 3 μmol/kg i.v., 30 min): 59% | Emax ([2]; after 300 nMol, read-out: Emax left-ventricular pressure): 58% | Emax ([2]; at Emax, 300 nMol, read-out: Percentage increase in heart rate at Emax): 27% | Percentage increase in heart rate at EC20 [2]: 6% | EC20 left-ventricular pressure [2]: 22 nmol

CCC(C)Oc1ccc(-c2ccc(=O)[nH]n2)cc1OC (centres unmarked) [Serial No. 7, 6-(4-sec.-butoxy-3-methoxyphenyl)-3[2H]pyridazinone]
[EC40 pot.] theophylline / [EC40 pot.] substance [3]: 120 | EC40 [3]: 3.47 µM | EC50 [4]: 1320 nM | [EC40 pot.] left atrium / [EC50] trachea [4]: 2.6 | [EC50] theophylline / [EC50] substance [4]: 102 | Emax [2, 8]: 86% | Emax [2, 9]: 23% | Percentage increase in heart rate at EC20 [2]: 3% | EC20 left-ventricular pressure [2]: 13 nmol | Percentage change in dP/dtmax (left ventricles of cats; 0.3 μmol/kg i.v., 3 min): 36% | Percentage change in dP/dtmax (left ventricles of cats; 0.3 μmol/kg i.v., 10 min): 4% | Percentage change in dP/dtmax (left ventricles of cats; 0.3 μmol/kg i.v., 30 min): 1% | Percentage change in dP/dtmax (left ventricles of cats; 0.3 μmol/kg i.v., 60 min): 2% | Percentage change in dP/dtmax (left ventricles of cats; 1 μmol/kg i.v., 3 min): 90% | Percentage change in dP/dtmax (left ventricles of cats; 1 μmol/kg i.v., 10 min): 25% | Percentage change in dP/dtmax (left ventricles of cats; 1 μmol/kg i.v., 30 min): 11% | Percentage change in dP/dtmax (left ventricles of cats; 1 μmol/kg i.v., 60 min): 11% | increase in the heart rate or end-diastolic ventricular pressure (left ventricles of cats): without leading to any considerable increase in the heart rate or end-diastolic ventricular pressure | positive inotropic effects (increase in dP/dtmax) compared with comparison compounds (left ventricles of cats): stronger positive inotropic effects

COc1ccc(-c2ccc(=S)[nH]n2)cc1OCC(C)C [compound 18]
[EC40 pot.] theophylline / [EC40 pot.] substance [3]: 166 | EC40 [3]: 1.58 µM | EC50 [4]: 4070 nM | [EC40 pot.] left atrium / [EC50] trachea [4]: 0.6 | [EC50] theophylline / [EC50] substance [4]: 33.1

COc1ccc(-c2ccc(=S)[nH]n2)cc1OC(C)C [compound 17]
[EC40 pot.] theophylline / [EC40 pot.] substance [3]: 151 | EC40 [3]: 2.75 µM | EC50 [4]: 7240 nM | [EC40 pot.] left atrium / [EC50] trachea [4]: 0.4 | [EC50] theophylline / [EC50] substance [4]: 18.6

Source: patent publication US4707481A, “Pyridazinones, their preparation and use, and bronchospasmolytic medicaments containing pyridazinones” (BYK Gulden Lomberg Chemische Fabrik GmbH, priority 1983, dated 1987)
